Results reported in US11542233B2, “Compounds, compositions and methods of use” (Aquinnah Pharmaceuticals, Inc., priority 2016, dated 2023).

Test system: TDP-43 aggregation in PC12 cells stably expressing GFP-tagged mutant TDP-43 (TDP-43^Q33IK::eGFP)
Assay: In vitro efficacy assay: inhibition of TDP-43 inclusions, concentration-response, fluorescence microscopy
Type: cell-based
Details: 1 hour pre-treatment, 15 μM sodium arsenite for 23 hours, 10-point dose response curve
Method in brief: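 PC12 cells stably expressing TDP-43^Q33IK::eGFP pre-treated 1 h with compound, then stressed with 15 μM sodium arsenite for 23 h. Fluorescence microscopy gave the fraction of GFP-positive cells bearing aggregates; IC50 from concentration-response, reported in bins: A <100 nM, B 100–500 nM, C 500 nM–2 μM, D >2 μM.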

[1] = Rattus norvegicus, PC-12, PC12 cells

| SMILES | IC50 [1] [nM] | IC50 (PC12 cells) [nM] |
| --- | --- | --- |
| C#CCOc1cccc(CN[C@@H]2CCC[C@H](N(CC)C(=O)c3nc4cc(N)ccc4[nH]3)C2)c1 [Compound 564] | 100 to 500 |  |
| C#CCOc1ccc(CN[C@@H]2CCC[C@H](N(CC)C(=O)c3nc4cc(N=[N+]=[N-])ccc4[nH]3)C2)cc1 [Compound 557, 5-azido-N-ethyl-N-((1S,3R)-3-((4-(prop-2-yn-1-yloxy)benzyl)amino)cyclohexyl)-1H-benzo[d]imidazole-2-carboxamide] | < 100 |  |
| C#CCOc1ccc(CN[C@@H]2CCC[C@H](N(CC)C(=O)c3nc4c([N+](=O)[O-])cccc4[nH]3)C2)cc1 [Compound 565] | < 100 |  |
| CCN(C(=O)c1cc2ccccc2[nH]1)[C@H]1CCC[C@@H](NCc2cnc(Cl)nc2)C1 [Compound 133] | 100 to 500 |  |
| [2H]C([2H])(N[C@@H]1CCC[C@H](N(CC)C(=O)c2nc3ccccc3[nH]2)C1)c1ccccc1 [Compound 522, N-ethyl-N-((1S,3R)-3-((phenylmethyl-d2)amino)cyclohexyl)-1H-benzo[d]imidazole-2-carboxamide] | < 100 |  |
| CCN(C(=O)c1nc2cc(F)ccc2[nH]1)[C@H]1CCC[C@@H](NCc2ccc(F)cc2)C1 [Compound 526] | < 100 |  |
| CCN(C(=O)c1cc2ccccc2[nH]1)[C@H]1CCC[C@@H](N2CCc3ccccc3C2)C1 [Compound 115] | 500 to 2000 |  |
| CCN(C(=O)c1cc2ccccc2[nH]1)[C@H]1CCC[C@@H](N(C)Cc2ccccc2)C1 [Compound 105, N-((1S,3R)-3-(benzyl(methyl)amino)cyclohexyl)-N-ethyl-1H-indole-2-carboxamide] | 100 to 500 |  |
| CCN(C(=O)c1nc2ccccc2[nH]1)[C@H]1CCC[C@@H](NCc2cn3ccccc3n2)C1 [Compound 494, N-ethyl-N-((1S,3R)-3-((imidazo[1,2-a]pyridin-2-ylmethyl)amino)cyclohexyl)-1H-benzo[d]imidazole-2-carboxamide] | < 100 |  |
| CCN(C(=O)c1cc2ccccc2[nH]1)[C@H]1COC[C@H](N[C@@H]2CCc3ccccc32)C1 [Compound 506, N-((3R,5R)-5-(((R)-2,3-dihydro-1H-inden-1-yl)amino)tetrahydro-2H-pyran-3-yl)-N-ethyl-1H-indole-2-carboxamide] | 500 to 2000 |  |
| CCN(C(=O)c1cc2ccccc2[nH]1)[C@H]1CCC[C@@H](NCc2cnc(OC)nc2)C1 [Compound 132] | < 100 |  |
| O=C(c1cc2ccccc2[nH]1)N(CC(F)(F)F)[C@H]1CCC[C@H](NCC2CCOCC2)C1 [Compound 182] | 500 to 2000 |  |
| CCN(C(=O)c1cc2ncccc2[nH]1)[C@H]1CCC[C@@H](N[C@@H](c2ccccc2)C(F)(F)F)C1 (single isomer, unassigned) [Compound 417] | 100 to 500 |  |
| CCN(C(=O)c1cc2ncccc2[nH]1)[C@H]1CCC[C@@H](N[C@H](c2ccccc2)C(F)(F)F)C1 (single isomer, unassigned) [Compound 416] | 500 to 2000 |  |
| CCN(C(=O)c1cc2ncccc2[nH]1)[C@H]1CCC[C@@H](NCc2ccnc(OC)c2)C1 [Compound 440] | < 100 |  |
| CCN(C(=O)c1cc2ccncc2[nH]1)[C@H]1CCC[C@@H](NCc2ccccc2)C1 [Compound 403] | 100 to 500 |  |
| CCN(C(=O)c1cc2ccccc2[nH]1)[C@H]1CCC[C@@H](NCc2ccc(Cl)cc2)C1 [Compound 135] | < 100 |  |
| CCN(C(=O)c1cc2ccccc2[nH]1)[C@H]1CCC[C@@H](NCc2oc3ccccc3c2C#N)C1 [Compound 496] | < 100 |  |
| COc1ccc(C(C)(C)N[C@@H]2CCC[C@H](N(CC(F)(F)F)C(=O)c3cc4ncccc4[nH]3)C2)cc1 [Compound 424, N-((1S,3R)-3-((2-(4-methoxyphenyl)propan-2-yl)amino)cyclohexyl)-N-(2,2,2-trifluoroethyl)-1H-pyrrolo[3,2-b]pyridine-2-carboxamide] | < 100 |  |
| CCN(C(=O)c1cc2ccccc2[nH]1)[C@H]1CCC[C@@H](NCc2cnoc2)C1 [Compound 453] | 100 to 500 |  |
| O=C(c1cc2ccccc2[nH]1)N(CC(F)(F)F)[C@H]1CCC[C@@H](NCc2ccncc2)C1 [Compound 177] | 100 to 500 |  |
| CCN(C(=O)c1nc2ccccc2[nH]1)[C@H]1CCC[C@@H](NCc2cc(C(F)(F)F)on2)C1 [Compound 554, N-ethyl-N-((1S,3R)-3-(((5-(trifluoromethyl)isoxazol-3-yl)methyl)amino)cyclohexyl)-1H-benzo[d]imidazole-2-carboxamide] | < 100 |  |
| CCN(C(=O)c1cc2ncccc2[nH]1)[C@H]1CCC[C@@H](NCc2cnn(C)c2)C1 [Compound 448] | < 100 |  |
| CCN(C(=O)c1cc2ccccc2[nH]1)[C@H]1CCC[C@@H](NCc2cccc(F)c2)C1 [Compound 106, N-ethyl-N-((1S,3R)-3-((3-fluorobenzyl)amino)cyclohexyl)-1H-indole-2-carboxamide] |  | < 100 |
| CCN(C(=O)c1nc2cc(C#N)ccc2[nH]1)[C@H]1CCC[C@@H](NCc2cc(C3CC3)on2)C1 [Compound 537] | < 100 |  |
| CCN(C(=O)c1cc2ccccc2[nH]1)[C@H]1CCC[C@@H](NCc2cnc(C)nc2)C1 [Compound 131] | 100 to 500 |  |

| SMILES | IC50 [1] [nM] | IC50 (PC12 cells) [nM] |
| --- | --- | --- |
| CCN(C(=O)c1[nH]c2ccccc2c1C)[C@H]1CCC[C@@H](NCc2ccccc2)C1 [Compound 402] | < 100 |  |
| C#CCCC1(CCOc2ccc(CN[C@@H]3CCC[C@H](N(CC)C(=O)c4cc5ccccc5[nH]4)C3)cc2)N=N1 [Compound 425, N-((1S,3R)-3-((4-(2-(3-(but-3-yn-1-yl)-3H-diazirin-3-yl)ethoxy)benzyl)amino)cyclohexyl)-N-ethyl-1H-indole-2-carboxamide] | 100 to 500 |  |
| C#CCOc1ccc(CN[C@@H]2CCC[C@H](N(CC)C(=O)c3nc4cc(N)ccc4[nH]3)C2)cc1 [Compound 562, 5-amino-N-ethyl-N-((1S,3R)-3-((4-(prop-2-yn-1-yloxy)benzyl)amino)cyclohexyl)-1H-benzo[d]imidazole-2-carboxamide] | 500 to 2000 |  |
| O=C(c1cc2ccccc2[nH]1)N(CC(F)(F)F)[C@H]1COC[C@H](NCc2ccccc2)C1 [Compound 303] | > 2000 |  |
| CCN(C(=O)c1cc2ccccc2[nH]1)C1CCCC(NC2CCc3ccccc32)C1 (stereo not shown) [Compound 112] | < 100 |  |
| CCN(C(=O)c1cc2ccccc2[nH]1)[C@H]1CCC[C@@H](NCc2nccs2)C1 [Compound 465, N-ethyl-N-((1S,3R)-3-((thiazol-2-ylmethyl)amino)cyclohexyl)-1H-indole-2-carboxamide] | 500 to 2000 |  |
| CCN(C(=O)c1cc2ccccc2[nH]1)[C@H]1CCC[C@@H](NCc2cc(C3CC3)on2)C1 [Compound 460] | < 100 |  |
| CCN(C(=O)c1cc2ccccc2[nH]1)[C@H]1CCC[C@@H](NCc2ccc3ocnc3c2)C1 [Compound 459] | < 100 |  |
| CCN(C(=O)c1nc2ccccc2[nH]1)[C@H]1CCC[C@@H](NCc2cc3cc(F)ccc3o2)C1 [Compound 478] | < 100 |  |
| O=C(c1cc2ncccc2[nH]1)N(CC(F)(F)F)[C@H]1CCC[C@@H](NCc2cccc(F)c2)C1 [Compound 422, N-((1S,3R)-3-((3-fluorobenzyl)amino)cyclohexyl)-N-(2,2,2-trifluoroethyl)-1H-pyrrolo[3,2-b]pyridine-2-carboxamide] | < 100 |  |
| CCN(C(=O)c1ccccn1)[C@H]1CCC[C@@H](NCc2ccccc2)C1 [Compound 404] | > 2000 |  |
| CCN(C(=O)c1cc2ccccc2[nH]1)[C@H]1CCC[C@@H](NCc2cccc(N=[N+]=[N-])c2)C1 [Compound 316, N-((1S,3R)-3-((3-azidobenzyl)amino)cyclohexyl)-N-ethyl-1H-indole-2-carboxamide] | < 100 |  |
| CCN(C(=O)c1cc2ccccc2[nH]1)[C@@H]1CCC[C@H](NCc2ccccc2)C1 [Compound 103] | 500 to 2000 |  |
| CCN(C(=O)c1cc2ccccc2[nH]1)[C@H]1CCC[C@@H](N[C@@H]2CCc3cc(F)ccc32)C1 [Compound 125] | 100 to 500 |  |
| CCN(C(=O)c1cc2ncccc2[nH]1)[C@H]1CCC[C@@H](NCc2ccnc(O)c2)C1 [Compound 434] | > 2000 |  |
| CCN(C(=O)c1cc2ncccc2[nH]1)[C@H]1CCC[C@@H](NCc2ccccc2)C1 [Compound 151] | < 100 |  |
| CCN(C(=O)c1nc2ccccc2[nH]1)[C@H]1CCC[C@@H](NCc2cc3ccccc3s2)C1 [Compound 490] | < 100 |  |
| CCN(C(=O)c1cc2ccccc2[nH]1)[C@H]1CCC[C@@H](NCc2c[nH]cn2)C1 [Compound 466] | > 2000 |  |
| CCN(C(=O)c1nc2ccccc2[nH]1)[C@H]1CCC[C@@H](NCc2ccc(OC(F)(F)F)cc2)C1 [Compound 473] | < 100 |  |
| CCN(C(=O)c1cc2ncccc2[nH]1)[C@H]1CCC[C@@H](NCc2nnc(C)o2)C1 [Compound 468, N-ethyl-N-((1S,3R)-3-(((5-methyl-1,3,4-oxadiazol-2-yl)methyl)amino)cyclohexyl)-1H-pyrrolo[3,2-b]pyridine-2-carboxamide] | 500 to 2000 |  |
| CCN(C(=O)c1cc2ccccc2[nH]1)[C@H]1CCC[C@@H](NCc2cccc(OC(F)(F)F)c2)C1 [Compound 430] | < 100 |  |
| CCN(C(=O)c1cc2cc(F)ccc2[nH]1)[C@H]1CCC[C@@H](NCc2oc3ccccc3c2C)C1 [Compound 548] | < 100 |  |
| O=C(c1cc2ccccc2[nH]1)N(CC(F)(F)F)[C@H]1CCC[C@@H](NCc2ccc(F)cc2)C1 [Compound 171] | < 100 |  |
| CCN(C(=O)c1cc2ccccc2[nH]1)[C@@H]1CCC[C@@H](N[C@H]2CCc3ccccc32)C1 [Compound 113] | 500 to 2000 |  |
| CCN(C(=O)c1cc2ccccc2[nH]1)[C@H]1CCC[C@@H](NC2(c3ccccc3)COC2)C1 [Compound 318, N-ethyl-N-((1S,3R)-3-((3-phenyloxetan-3-yl)amino)cyclohexyl)-1H-indole-2-carboxamide] | 500 to 2000 |  |
| CCN(C(=O)c1nc2ccccc2[nH]1)[C@H]1CCC[C@@H](NCc2cc3ccccc3o2)C1 [Compound 479] | < 100 |  |
